Key:
human M2 receptor [1] = molecular target: T1, human M2 receptor (Homo sapiens, UniProt P08172); assay: Functional M2-GIRK1/4 activation test: positive cooperativity (α factor), shift of acetylcholine dose-response curve; format: cell-based; details: Allosteric EC50 shift of acetylcholine 8-point dose-response curve; CHO-DUKX-M2-GIRK cells; α>1 = positive cooperativity
T1 construct: expressed in transfected cells; host or cells: CHO-DUKX (CHO-DUKX-M2-GIRK)
T1 sequence (P08172 1-466): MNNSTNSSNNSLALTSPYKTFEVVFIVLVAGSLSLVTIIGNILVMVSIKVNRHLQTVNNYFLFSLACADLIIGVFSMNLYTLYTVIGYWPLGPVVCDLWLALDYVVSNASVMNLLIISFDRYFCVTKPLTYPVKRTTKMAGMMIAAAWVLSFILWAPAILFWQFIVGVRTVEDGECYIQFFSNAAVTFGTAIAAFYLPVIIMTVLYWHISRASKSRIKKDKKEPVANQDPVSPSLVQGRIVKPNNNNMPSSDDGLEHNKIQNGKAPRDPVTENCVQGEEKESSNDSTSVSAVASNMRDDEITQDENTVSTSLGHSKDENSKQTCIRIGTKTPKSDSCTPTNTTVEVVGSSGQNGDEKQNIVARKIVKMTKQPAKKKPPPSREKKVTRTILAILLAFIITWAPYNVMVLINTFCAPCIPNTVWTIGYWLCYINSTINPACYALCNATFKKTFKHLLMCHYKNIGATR
From the text: The binding of orthosteric agonists (endogenous ligand: acetylcholine) to the M2 receptor leads to receptor activation or a change in conformation of the receptor in the manner of a shift in equilibrium in favour of the active receptor conformation.
The agonist-induced change in conformation of the M2 receptor results in a Gαi protein activation. […] Under physiological conditions, the result is then a selective efflux of potassium from the cell along the electrochemical gradient. […] The extent of hyperpolarization can therefore be regarded as a measure of the activation of the M2 receptor.
The test cell used is a recombinant CHO-DUKX cell line which has been stably transfected with cDNA coding for the human M2 receptor and with cDNA coding for both GIRK1/4 subunits (CHO-DUKX-M2-GIRK). The transmembrane potential, or the relative changes in the transmembrane potential as a function of substance addition or M2 activation, is determined by means of a voltage-sensitive dye (FLIPR Membrane Potential Assay Kit Blue, Molecular Devices #R8034) and the measurement of cell fluorescence using a proprietary fluorescence imaging instrument.
In accordance with the desired test concentrations, the substances were pre-diluted in loading buffer (see above).
The sowing medium consisted of MEM alpha medium (supplemented with 5% PCS, 2% Glutamax, no genticin).
For the particular measurement, the medium was removed and the cells were laden with the volt-age-sensitive dye for at least 6 min at room temperature (30 μl of loading buffer per 384-well). This was followed, in a first measurement, by the determination of the resting transmembrane potential for a period of 5 sec in 1 sec increments. Thereafter, 10 μl in each case of the test substances diluted in loading buffer are added, followed by a second measurement to determine the transmembrane potential for a period of 50 sec in 1 sec increments.
Finally, the cells are admixed with 10 μl of agonist solution (acetylcholine dissolved in loading buffer). In contrast to the EC50 determination of the test substances (see B-1.1), however, this is not done using one acetylcholine concentration; instead, every concentration of the test substance is combined with an acetylcholine 8-point dose-response curve. […] The M2-mediated GIRK1/4 activation or hyperpolarization is then monitored in a third measurement over a period of 60 sec in 1 sec increments. The shift in the acetylcholine dose-response curve in the presence of increasing concentrations of the test substance is analysed and quantified by means of GraphPad PRISM (Allosteric EC50 shift). […] Positive cooperativity is the hallmark of a positive allosteric modulator. […] The greater the magnitude of the α value, the greater the extent of cooperativity between orthosteric and allosteric.

human M2 receptor [2] = molecular target: T1, human M2 receptor; assay: Functional M2-GIRK1/4 activation test: allosteric potency (EC50) and efficiency at EC20 acetylcholine; format: cell-based; details: CHO-DUKX-M2-GIRK cells; for EC50: voltage-sensitive dye, acetylcholine at EC20, in some cases mean of two or more determinations
Outline: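 Positive allosteric modulation measured as boosting of an EC20 acetylcholine response: hyperpolarization via GIRK1/4 in CHO-DUKX-M2-GIRK cells, monitored by membrane-potential dye fluorescence over 60 s after agonist, compound preadded. Hill-function fit gives EC50 and efficiency.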

[3] = boosting of the acetylcholine effect at EC20 acetylcholine concentration

CC[C@H](NC(=O)c1cn(-c2c(F)cc(F)cc2F)c2nc(N3CC[C@H](O)C3)c(F)cc2c1=O)C(F)(F)F [Example 115, 6-Fluoro-7-[(3S)-3-hydroxypyrrolidin-1-yl]-4-oxo-N-[(2S)-1,1,1-trifluorobutan-2-yl]-1-(2,4,6-trifluorophenyl)-1,4-dihydro-1,8-naphthyridine-3-carboxamide]
Cooperativity (alpha factor) (human M2 receptor [1]): 53
EC50 (human M2 receptor [2]): 6.65 nM
Emax (human M2 receptor [2]; [3]): 98%

CC[C@H](NC(=O)c1cn(-c2c(F)cc(F)cc2Cl)c2nc(N3C[C@@H](O)[C@H](O)C3)c(F)cc2c1=O)C(F)(F)F (single isomer, unassigned) [Example 48]
Cooperativity (alpha factor) (human M2 receptor [1]): 42
EC50 (human M2 receptor [2]): 1.8 nM
Efficiency (human M2 receptor [2]; [3]): 78%

CC(NC(=O)c1cn(-c2c(F)cc(F)cc2F)c2nc(N3CC[C@H](O)C3)c(F)cc2c1=O)C(F)(F)C(F)(F)F (single isomer, unassigned) [Example 113]
Cooperativity (alpha factor) (human M2 receptor [1]): 35
EC50 (human M2 receptor [2]): 2 nM
Emax (human M2 receptor [2]; [3]): 100%

CC(C)[C@@H](C)NC(=O)c1cn(-c2c(F)cc(F)cc2F)c2nc(N3C[C@@H](O)[C@H](O)C3)c(F)cc2c1=O [Example 15, 7-[(3R,4R)-3,4-dihydroxypyrrolidin-1-yl]-6-fluoro-N-[(2R)-3-methylbutan-2-yl]-4-oxo-1-(2,4,6-trifluorophenyl)-1,4-dihydro-1,8-naphthyridine-3-carboxamide]
Cooperativity (alpha factor) (human M2 receptor [1]): 41
EC50 (human M2 receptor [2]): 9.15 nM
Emax (human M2 receptor [2]; [3]): 96%

O=C(NC(C(F)(F)F)C(F)(F)F)c1cn(-c2ncc(F)cc2F)c2nc(N3C[C@@H](O)[C@H](O)C3)c(F)cc2c1=O [Example 145, 1-(3,5-Difluoropyridin-2-yl)-7-[(3R,4R)-3,4-dihydroxypyrrolidin-1-yl]-6-fluoro-N-(1,1,1,3,3,3-hexafluoropropan-2-yl)-4-oxo-1,4-dihydro-1,8-naphthyridine-3-carboxamide]
Cooperativity (alpha factor) (human M2 receptor [1]): 86
EC50 (human M2 receptor [2]): 11.2 nM
Emax (human M2 receptor [2]; [3]): 100%

O=C(NC(C1CC1)(C1CC1)C(F)(F)F)c1cn(-c2c(F)cc(F)cc2F)c2nc(N3C[C@@H](O)[C@H](O)C3)c(F)cc2c1=O [Example 203, N-(1,1-dicyclopropyl-2,2,2-trifluoroethyl)-7-[(3R,4R)-3,4-dihydroxypyrrolidin-1-yl]-6-fluoro-4-oxo-1-(2,4,6-trifluorophenyl)-1,4-dihydro-1,8-naphthyridine-3-carboxamide]
Cooperativity (alpha factor) (human M2 receptor [1]): 29
EC50 (human M2 receptor [2]): 5 nM
Emax (human M2 receptor [2]; [3]): 100%

CC(NC(=O)c1cn(-c2ncc(F)cc2F)c2nc(N3CC(O)C(O)C3)c(F)cc2c1=O)C(F)(F)C(F)(F)F (single isomer, unassigned) [Example 45]
Cooperativity (alpha factor) (human M2 receptor [1]): 62
EC50 (human M2 receptor [2]): 8.47 nM
Emax (human M2 receptor [2]; [3]): 100%

O=C(N[C@@H](C1CC1)C(F)(F)F)c1cn(-c2c(F)cc(F)cc2F)c2nc(N3C[C@@H](O)[C@H](O)C3)c(Cl)cc2c1=O [Example 37, 6-chloro-N-[(1S)-1-cyclopropyl-2,2,2-trifluoroethyl]-7-[(3R,4R)-3,4-dihydroxypyrrolidin-1-yl]-4-oxo-1-(2,4,6-trifluorophenyl)-1,4-dihydro-1,8-naphthyridine-3-carboxamide]
Cooperativity (alpha factor) (human M2 receptor [1]): 38
EC50 (human M2 receptor [2]): 6 nM
Emax (human M2 receptor [2]; [3]): 100%

O=C(NC(C1CC1)C(F)(F)C(F)(F)F)c1cn(-c2c(F)cc(F)cc2F)c2nc(N3C[C@@H](O)[C@H](O)C3)c(F)cc2c1=O (single isomer, unassigned) [Example 201]
Cooperativity (alpha factor) (human M2 receptor [1]): 39
EC50 (human M2 receptor [2]): 1.6 nM
Emax (human M2 receptor [2]; [3]): 100%

O=C(NC(C1CC1)(C1CC1)C(F)(F)F)c1cn(-c2c(F)cc(F)cc2F)c2nc(N3CC(CO)(CO)C3)c(F)cc2c1=O [Example 210, 7-[3,3-bis(hydroxymethyl)azetidin-1-yl]-N-(1,1-dicyclopropyl-2,2,2-trifluoroethyl)-6-fluoro-4-oxo-1-(2,4,6-trifluorophenyl)-1,4-dihydro-1,8-naphthyridine-3-carboxamide]
Cooperativity (alpha factor) (human M2 receptor [1]): 26
EC50 (human M2 receptor [2]): 2.1 nM
Emax (human M2 receptor [2]; [3]): 100%
